Results reported in patent publication US8546443B2, “Benzylic oxindole pyrimidines” (Boehringer Ingelheim International GmbH, priority 2010, dated 2013).

Experiments:
[1] = test system: TC-71 (Ewing's sarcoma) cells; assay: Cell proliferation assay, TC-71 (Alamar Blue); type: cell-based; conditions: 72 h with compound, EC50 ranges as class symbols
Method: Cell Proliferation Assays
Compounds were tested for their anti-proliferative effects in the TC-71 (Ewing's sarcoma) and HCT 116 (colorectal carcinoma) cancer cell lines in vitro. Published scientific data has described that interference with the Insulin-like Growth Factor-1 Receptor (IGF-1R) signaling pathway reduces the proliferation of TC-71 cells. Therefore TC-71 cells served as a positive control cell line for monitoring the activity of compounds against IGF-1R-mediated cell proliferation. […] Therefore the HCT 116 cell line served as a negative control.
2000 TC-71 cells or 1000 HCT 116 cells were seeded per well in 180 μL IMDM+10% foetal calf serum (FCS)+ penicillin/streptomycin into 96-well microtitre plates. The plates were placed in a cell culture incubator (37° C. in a humidified atmosphere of […]/5 CO2) overnight. The following day, serial dilutions of compounds, prepared in duplicates, were transferred onto the cell layers (controls without compound). The cells were cultivated for a further 72 h in the cell culture incubator. 20 μL of Alamar Blue™ (Serotec Ltd, Düsseldorf, Germany) was added to each well and the plates incubated for 7 h in the cell culture incubator. Fluorescence (extinction wavelength of 544 nm and emission at 590 nm) was then measured and the normalized data fitted by iterative calculation with a sigmoidal curve analysis program (Graph Pad Prism) with a variable Hill slope to determine the IC50 values.

[2] = molecular target: T1, cytoplasmic kinase domain of human IGF-1R (IGF-1R-GST) (Homo sapiens, UniProt P08069); assay: Insulin-like growth factor-1 receptor (IGF-1R) kinase assay (DELFIA); type: biochemical; conditions: IGF-1R-GST kinase activity, read-out: IGF1R IC50
T1 construct: cytoplasmic kinase domain of human IGF-1R (amino acids 964-1370); GST (glutathione-S-transferase); made in house; host or cells: High Five insect cells (Invitrogen)
Method in brief: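 GST-tagged IGF-1R cytoplasmic kinase domain phosphorylates pEY with biotinylated pEY for 40 min at RT; EDTA stop. Product captured on streptavidin, detected with europium anti-phosphotyrosine antibody by DELFIA time-resolved fluorescence; IC50 from inhibition curves.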

T1 sequence (P08069 964-1367 limits assumed): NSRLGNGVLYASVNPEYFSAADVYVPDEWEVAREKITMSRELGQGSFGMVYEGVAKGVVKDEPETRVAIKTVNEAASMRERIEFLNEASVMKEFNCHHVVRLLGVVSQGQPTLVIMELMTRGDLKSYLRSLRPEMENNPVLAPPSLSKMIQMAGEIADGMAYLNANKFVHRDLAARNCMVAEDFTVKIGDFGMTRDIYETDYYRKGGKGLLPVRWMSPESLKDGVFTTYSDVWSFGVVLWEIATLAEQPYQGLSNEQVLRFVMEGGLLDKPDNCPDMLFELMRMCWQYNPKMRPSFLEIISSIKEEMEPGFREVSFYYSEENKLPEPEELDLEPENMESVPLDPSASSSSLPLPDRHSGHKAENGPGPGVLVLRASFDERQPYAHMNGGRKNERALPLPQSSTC

| SMILES | EC50 [1] | IC50 [2] |
| --- | --- | --- |
| CNC1(C(=O)N2CCCC(c3ccc(Nc4ncc(Br)c(NCc5cccc6c5C(C)(C)C(=O)N6)n4)c(C)c3)C2)CC1 (racemic) [Example I-291] | 50 to 250 nM | 6 nM |
| Cc1cc(C2CCCN(CC(O)C(F)(F)F)C2)ccc1Nc1ncc(Br)c(NCc2cccc3c2C(C)(C)C(=O)N3)n1 (racemic) [Example I-316] | 50 to 250 nM | 2 nM |
| CC1(C)C(=O)Nc2cccc(CNc3nc(Nc4ccc(C5CCCN(CC(O)C(F)(F)F)C5)cc4)ncc3Br)c21 (racemic) [Example I-325] | 50 to 250 nM | 2 nM |
| Cc1cc(C2CCCN(CC(O)C(F)(F)F)C2)ccc1Nc1ncc(Cl)c(NCc2cccc3c2C(C)(C)C(=O)N3)n1 (racemic) [Example I-329] | < 50 nM | 2 nM |
| CC1(C)C(=O)Nc2cccc(CNc3nc(Nc4ccc(C5CCCN(CC(O)C(F)(F)F)C5)cc4)ncc3Cl)c21 (racemic) [Example I-333] | 250 to 3000 nM | 2 nM |
| COc1cc(C2CCCN(CCO)C2)ccc1Nc1ncc(Br)c(NCc2cccc3c2C(C)(C)C(=O)N3)n1 (racemic) [Example I-361] | < 50 nM | – |
| CNC(=O)CN1CCCC(c2ccc(Nc3ncc(Br)c(NCc4cccc5c4C(C)(C)C(=O)N5)n3)c(C)c2)C1 (racemic) [Example I-366] | 50 to 250 nM | 2 nM |
| CCc1cc(C2CCCN(CCOC)C2)ccc1Nc1ncc(Br)c(NCc2cccc3c2C(C)(C)C(=O)N3)n1 (racemic) [Example I-368] | < 50 nM | 2 nM |
| COc1cc(N2CCC(C(=O)NC3CCN(C)CC3)CC2)ccc1Nc1ncc(C(F)(F)F)c(NCc2cccc3c2C(C)(C)C(=O)N3)n1 [Example I-226] | – | 2 nM |
| CNC(=O)C1CCN(c2ccc(Nc3ncc(C(F)(F)F)c(NCc4cccc5c4C(C)(C)C(=O)N5)n3)c(OC)c2)CC1 [Example I-227] | – | 5 nM |
| COc1cc(C(=O)NC2CCN(C)CC2)ccc1Nc1ncc(C(F)(F)F)c(NCc2cccc3c2C(C)(C)C(=O)N3)n1 [Example I-228] | – | 8 nM |
| CCN1CCC(NC(=O)c2ccc(Nc3ncc(C(F)(F)F)c(NCc4cccc5c4CC(=O)N5)n3)c(OC)c2)CC1 [Example I-229] | – | 12 nM |
| COc1cc(N2CCC(C(=O)N(C)C)CC2)ccc1Nc1ncc(C(F)(F)F)c(NCc2cccc3c2C(C)(C)C(=O)N3)n1 [Example I-230] | – | 13 nM |
| COc1cc(C(=O)NC2CCN(C)CC2)ccc1Nc1ncc(C(F)(F)F)c(NCc2cccc3c2C(C)(C)C(=O)N3C)n1 [Example I-231] | – | 15 nM |
| COc1cc(C(=O)NCCN2CCCC2)ccc1Nc1ncc(C(F)(F)F)c(NCc2cccc3c2CC(=O)N3)n1 [Example I-232] | – | 47 nM |
| CCC1(CC)C(=O)Nc2cccc(CNc3nc(Nc4ccc(C(=O)NC5CCN(C)CC5)cc4OC)ncc3C(F)(F)F)c21 [Example I-233] | – | 58 nM |
| COc1cc(C(=O)N2CCOCC2)ccc1Nc1ncc(C(F)(F)F)c(NCc2cccc3c2C(C)(C)C(=O)N3)n1 [Example I-234] | – | 8 nM |
| COc1cc(N2CCC(O)CC2)ccc1Nc1ncc(C(F)(F)F)c(NCc2cccc3c2CC(=O)N3)n1 [Example I-237] | – | 21 nM |
| COc1cc(N2CCNCC2)ccc1Nc1ncc(Cl)c(NCc2cccc3c2C(C)(C)C(=O)N3)n1 [Example I-254] | – | 2.2 nM |
| CC(C)(O)CN1CCC(c2ccc(Nc3ncc(C(F)(F)F)c(NCc4cccc5c4C(C)(C)C(=O)N5)n3)c3c2OCO3)CC1 [Example I-315] | – | 1.9 nM |
| Cc1cc(C2CCN(CC(C)(C)O)CC2)c(C)cc1Nc1ncc(Cl)c(NCc2cccc3c2C(C)(C)C(=O)N3)n1 [Example I-338] | 250 to 3000 nM | – |
| CNC(=O)CN1CCC(c2ccc(Nc3ncc(Cl)c(NCc4cccc5c4C(C)(C)C(=O)N5)n3)c(C)c2)CC1 [Example I-370] | < 50 nM | – |

The remaining compounds from weak to strong by IC50 [2], led by results:

| EC50 [1] | IC50 [2] | SMILES |
| --- | --- | --- |
| < 50 nM | 1.6 nM | COc1cc(C2CCCN(CC(C)(C)O)C2)ccc1Nc1ncc(C(F)(F)F)c(NCc2cccc3c2C(C)(C)C(=O)N3)n1 (racemic) [Example I-301] |
| 50 to 250 nM | 1 nM | CC1(C)C(=O)Nc2cccc(CNc3nc(Nc4ccc(C5CCCNC5)cc4)ncc3Br)c21 (racemic) [Example I-238] |
| < 50 nM | 1 nM | Cc1cc(C2CCCN(CC(C)(C)O)C2)ccc1Nc1ncc(C(F)(F)F)c(NCc2cccc3c2C(C)(C)C(=O)N3)n1 (racemic) [Example I-306] |
| < 50 nM | 1 nM | COc1cc(C2CCCN(CC(C)(C)O)C2)ccc1Nc1ncc(Cl)c(NCc2cccc3c2C(C)(C)C(=O)N3)n1 (racemic) [Example I-327] |
| < 50 nM | 1 nM | Cc1cc(C2CCCN(CC(C)(C)O)C2)ccc1Nc1ncc(Cl)c(NCc2cccc3c2C(C)(C)C(=O)N3)n1 (racemic) [Example I-328] |
| < 50 nM | 1 nM | Cc1cc(C2CCCN(CCO)C2)ccc1Nc1ncc(C(F)(F)F)c(NCc2cccc3c2C(C)(C)C(=O)N3)n1 (racemic) [Example I-354] |
| 50 to 250 nM | 1 nM | CNC(=O)CN1CCCC(c2ccc(Nc3ncc(Br)c(NCc4cccc5c4C(C)(C)C(=O)N5)n3)cc2)C1 (racemic) [Example I-365] |
| < 50 nM | 0.8 nM | COCCN1CCCC(c2ccc(Nc3ncc(C(F)(F)F)c(NCc4cccc5c4C(C)(C)C(=O)N5)n3)c(C)c2)C1 (racemic) [Example I-356] |
| < 50 nM | 0.8 nM | COCCN1CCCC(c2ccc(Nc3ncc(Cl)c(NCc4cccc5c4C(C)(C)C(=O)N5)n3)c(OC)c2)C1 (racemic) [Example I-371] |
| < 50 nM | 0.8 nM | COc1cc(C2CCCN(CCO)C2)ccc1Nc1ncc(Cl)c(NCc2cccc3c2C(C)(C)C(=O)N3)n1 (racemic) [Example I-372] |
| 50 to 250 nM | 0.7 nM | COCCN1CCCC(c2ccc(Nc3ncc(Br)c(NCc4cccc5c4C(C)(C)C(=O)N5)n3)cc2)C1 (racemic) [Example I-357] |
| < 50 nM | 0.7 nM | CC1(C)C(=O)Nc2cccc(CNc3nc(Nc4ccc(C5CCCN(CCO)C5)cc4)ncc3Br)c21 (racemic) [Example I-358] |
| < 50 nM | 0.6 nM | COCCN1CCCC(c2ccc(Nc3ncc(Br)c(NCc4cccc5c4C(C)(C)C(=O)N5)n3)c(OC)c2)C1 (racemic) [Example I-360] |
| < 50 nM | 0.6 nM | Cc1cc(C2CCCN(CCO)C2)ccc1Nc1ncc(Br)c(NCc2cccc3c2C(C)(C)C(=O)N3)n1 (racemic) [Example I-364] |
| < 50 nM | 0.5 nM | COc1cc(C2CCCN(CC(C)(C)O)C2)ccc1Nc1ncc(Br)c(NCc2cccc3c2C(C)(C)C(=O)N3)n1 (racemic) [Example I-322] |
| < 50 nM | 0.5 nM | COCCN1CCCC(c2ccc(Nc3ncc(C(F)(F)F)c(NCc4cccc5c4C(C)(C)C(=O)N5)n3)c(OC)c2)C1 (racemic) [Example I-350] |
| < 50 nM | 0.5 nM | COc1cc(C2CCCN(CCO)C2)ccc1Nc1ncc(C(F)(F)F)c(NCc2cccc3c2C(C)(C)C(=O)N3)n1 (racemic) [Example I-351] |
| < 50 nM | 0.5 nM | COCCN1CCCC(c2ccc(Nc3ncc(Br)c(NCc4cccc5c4C(C)(C)C(=O)N5)n3)c(C)c2)C1 (racemic) [Example I-359] |
| < 50 nM | 0.4 nM | Cc1cc(C2CCCN(CC(C)(C)O)C2)ccc1Nc1ncc(Br)c(NCc2cccc3c2C(C)(C)C(=O)N3)n1 (racemic) [Example I-318] |
